# Experimental data from patent publication US11319299B2, “Substituted carboxamides as inhibitors of WDR5 protein-protein binding” (PROPELLON THERAPEUTICS INC., priority 2016, dated 2022).
# Molecular target: WDR5 (Homo sapiens (Human), UniProt P61964)
# Test: Surface Plasmon Resonance (SPR) assay, KD and residence time
# Type: binding
# Conditions: surface plasmon resonance (SPR) assay; read-out: WDR5 binding affinity (KD)
row,Kd [nM],Structure (SMILES)
1,2.83,"C[C@@H]1CN(c2cc(F)c(C3=CCN(Cc4nccs4)CC3)cc2NC(=O)c2c[nH]c(=O)cc2C(F)(F)F)C[C@H](C)N1C [Example 162, N-[4-fluoro-2-[(3R,5S)-3,4,5-trimethylpiperazin-1-yl]-5-[1-(1,3-thiazol-2-ylmethyl)-3,6-dihydro-2H-pyridin-4-yl]phenyl]-6-oxo-4-(trifluoromethyl)-1H-pyridine-3-carboxamide]"
2,2.5,"Cc1cc(-c2cc(NC(=O)c3c[nH]c(=O)cc3C(F)(F)F)c(N3C[C@@H](C)N(C)[C@@H](C)C3)cc2F)cnc1N1CCOCC1 [Example 171, N-[4-fluoro-5-(5-methyl-6-morpholin-4-ylpyridin-3-yl)-2-[(3R,5S)-3,4,5-trimethylpiperazin-1-yl]phenyl]-6-oxo-4-(trifluoromethyl)-1H-pyridine-3-carboxamide]"
3,0.32,"C[C@@H]1CN(c2cc(F)c(-c3ccc(OC4CCOCC4)nc3)cc2NC(=O)c2c[nH]c(=O)cc2C(F)(F)F)C[C@H](C)N1C [Example 101, N-[4-fluoro-5-[6-(oxan-4-yloxy)pyridin-3-yl]-2-[(3R,5S)-3,4,5-trimethylpiperazin-1-yl]phenyl]-6-oxo-4-(trifluoromethyl)-1H-pyridine-3-carboxamide]"

# Same assay, conditions: surface plasmon resonance (SPR); read-out: WDR5 binding affinity (KD)
row,Kd [nM],Structure (SMILES)
1,24.9,"CC1CN(c2cc(F)c(-c3cnc(N4CCOCC4)nc3)cc2NC(=O)c2c[nH]c(=O)c(C(F)(F)F)c2)CCN1C (stereo in doubt) [Example 495, N-[4-fluoro-5-(2-morpholin-4-ylpyrimidin-5-yl)-2-[(3R)-3,4-dimethylpiperazin-1-yl]phenyl]-6-oxo-5-(trifluoromethyl)-1H-pyridine-3-carboxamide]"
2,1.97,"C[C@@H]1CN(c2cc(F)c(-c3ccc4c(c3)ncn4C)cc2NC(=O)c2c[nH]c(=O)cc2C(F)(F)F)C[C@H](C)N1C [Example 675, N-[4-fluoro-5-(1-methylbenzimidazol-5-yl)-2-[(3R,5S)-3,4,5-trimethylpiperazin-1-yl]phenyl]-6-oxo-4-(trifluoromethyl)-1H-pyridine-3-carboxamide]"
3,0.58,"CC1CN(c2cc(F)c(C3=CCN(c4ccnc(C#N)n4)CC3)cc2NC(=O)c2c[nH]c(=O)cc2C(F)F)CCN1C (stereo in doubt) [Example 708, N-[5-[1-(2-cyanopyrimidin-4-yl)-3,6-dihydro-2H-pyridin-4-yl]-4-fluoro-2-[(3R)-3,4-dimethylpiperazin-1-yl]phenyl]-4-(difluoromethyl)-6-oxo-1H-pyridine-3-carboxamide]"
4,10.9,"C[C@@H]1CN(c2ncc(-c3cc(NC(=O)c4cn(C)c(=O)cc4C(F)(F)F)c(N4CC[C@@H](N(C)C)C4)cc3F)cn2)C[C@H](C)O1 (racemic) [Example 426, N-[4-fluoro-2-[(3S)-3-(dimethylamino)pyrrolidin-1-yl]-5-[2-[(2R,6S)-2,6-dimethylmorpholin-4-yl]pyrimidin-5-yl]phenyl]-1-methyl-6-oxo-4-(trifluoromethyl)pyridine-3-carboxamide]"
5,7.46,"C[C@@H]1CN(c2cc(F)c(-c3ccc(F)c(C(N)=O)c3)cc2NC(=O)c2cn(C)c(=O)cc2C(F)(F)F)C[C@H](C)N1C [Example 589, N-[5-(3-carbamoyl-4-fluorophenyl)-4-fluoro-2-[(3R,5S)-3,4,5-trimethylpiperazin-1-yl]phenyl]-1-methyl-6-oxo-4-(trifluoromethyl)pyridine-3-carboxamide]"
6,1.71,"C[C@@H]1CN(c2cc(F)c(-c3nc(CN4CCOCC4)cs3)cc2NC(=O)c2c[nH]c(=O)cc2C(F)(F)F)C[C@H](C)N1C [Example 750, N-[4-fluoro-5-[4-(morpholin-4-ylmethyl)-1,3-thiazol-2-yl]-2-[(3R,5S)-3,4,5-trimethylpiperazin-1-yl]phenyl]-6-oxo-4-(trifluoromethyl)-1H-pyridine-3-carboxamide]"
